We go through 29 compounds from patent US9115147B2, “Tricyclic derivatives and their pharmaceutical use and compositions” (Cephalon, Inc., priority 2009, dated 2015).

Some results are limits rather than exact numbers.

The target in the first experiment is T1, human 5-HT6 receptor (Homo sapiens, UniProt P50406).
T1 construct: host or cells: CHO-K1 cells, stably transfected; membranes prepared in house
T1 sequence (P50406 whole entry): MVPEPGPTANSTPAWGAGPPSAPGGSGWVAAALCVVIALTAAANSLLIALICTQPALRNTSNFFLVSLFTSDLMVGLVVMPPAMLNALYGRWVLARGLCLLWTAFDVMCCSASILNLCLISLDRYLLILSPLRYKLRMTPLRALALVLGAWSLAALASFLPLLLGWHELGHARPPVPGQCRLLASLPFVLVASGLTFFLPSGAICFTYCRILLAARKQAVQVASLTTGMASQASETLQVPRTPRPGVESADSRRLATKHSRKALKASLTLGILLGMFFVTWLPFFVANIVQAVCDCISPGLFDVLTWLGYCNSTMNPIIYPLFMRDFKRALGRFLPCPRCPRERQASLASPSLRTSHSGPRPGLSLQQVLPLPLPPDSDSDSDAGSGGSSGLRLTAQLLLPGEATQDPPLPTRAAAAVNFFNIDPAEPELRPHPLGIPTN
As to the kind of experiment: Human 5-HT6 Receptor Binding Assay ([3H]LSD, scintillation beads). The settings on record: actual data; membranes of CHO-K1 cells with recombinant human 5-HT6 receptor, 4 nM [3H]LSD; read-out: Human 5-HT6 Ki. Put shortly:
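Membranes from CHO-K1 cells stably expressing human 5-HT6, 1.75 μg protein/well with scintillation beads, in 50 mM Tris pH 7.4, 4 mM CaCl2, saponin, ascorbic acid. Nonspecific binding with 10 μM serotonin. IC50 from variable-slope fit; Ki by Cheng-Prusoff.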
Take `O=S(=O)(c1ccccc1)c1ccc2c(c1)OCC1C2CCN1CCO` (single isomer, unassigned) [Example 97, 2-[7-(phenylsulfonyl)-1,3a,4,9b-tetrahydrochromeno[3,4-b]pyrrol-3(2H)-yl]ethanol]: the Ki amounted to 221 nM.

The experiment is the same for the next values; noted with them: membranes of CHO-K1 cells with recombinant human 5-HT6 receptor, 4 nM [3H]LSD, Cheng-Prusoff; read-out: Human 5-HT6 Ki app.
For `O=S(=O)(c1cncc(Br)c1)c1ccc2c(c1)OCC1C2CCN1C1CCC1` (single isomer, unassigned) [Example 78, 7-[(5-bromopyridin-3-yl)sulfonyl]-3-cyclobutyl-1,2,3,3a,4,9b-hexahydrochromeno[3,4-b]pyrrole], the Ki is more than 1000 nM.

`COc1cncc(S(=O)(=O)c2ccc3c(c2)OCC2C3CCN2C2CCC2)c1` (single isomer, unassigned) [Example 79, 3-cyclobutyl-7-[(5-methoxypyridin-3-yl)sulfonyl]-1,2,3,3a,4,9b-hexahydrochromeno[3,4-b]pyrrole]: the Ki is more than 1000 nM. Turning to `O=S(=O)(c1cncc(F)c1)c1ccc2c(c1)OCC1C2CCN1C1CCC1` (single isomer, unassigned) [Example 80, 3-cyclobutyl-7-[(5-fluoropyridin-3-yl)sulfonyl]-1,2,3,3a,4,9b-hexahydrochromeno[3,4-b]pyrrole], the Ki was more than 1000 nM. Still for that read-out and setting: the same measure for `O=S(=O)(c1cncc(Cl)c1)c1ccc2c(c1)OCC1C2CCN1C1CCC1` (single isomer, unassigned) [Example 81, 7-[(5-chloropyridin-3-yl)sulfonyl]-3-cyclobutyl-1,2,3,3a,4,9b-hexahydrochromeno[3,4-b]pyrrole]: more than 1000 nM; for `Cc1cccc(Sc2ccc3c(c2)OCC2C3CCN2C2CCC2)n1` (single isomer, unassigned) [Example 82, 3-cyclobutyl-7-[(6-methylpyridin-2-yl)sulfanyl]-1,2,3,3a,4,9b-hexahydrochromeno[3,4-b]pyrrole]: more than 1000 nM.

As to `Cc1cccc([S+]([O-])c2ccc3c(c2)OCC2C3CCN2C2CCC2)n1` (single isomer, unassigned) [Example 83, 3-cyclobutyl-7-[(6-methylpyridin-2-yl)sulfinyl]-1,2,3,3a,4,9b-hexahydrochromeno[3,4-b]pyrrole], the Ki was more than 1000 nM.

Turning to `Cc1cccc(S(=O)(=O)c2ccc3c(c2)OCC2C3CCN2C2CCC2)n1` (single isomer, unassigned) [Example 84, 3-cyclobutyl-7-[(6-methylpyridin-2-yl)sulfonyl]-1,2,3,3a,4,9b-hexahydrochromeno[3,4-b]pyrrole], the Ki is more than 1000 nM. In the case of `Cc1cccc(S(=O)(=O)c2ccc3c(c2)OCC2C3CCN2C2CCC2)n1` (single isomer, unassigned) [Example 85, 3-cyclobutyl-7-[(6-methylpyridin-2-yl)sulfonyl]-1,2,3,3a,4,9b-hexahydrochromeno[3,4-b]pyrrole], the Ki was more than 1000 nM. Still for that read-out and setting: the value for `O=S(=O)(c1cncc(C(F)(F)F)c1)c1ccc2c(c1)OCC1C2CCN1C1CCC1` (single isomer, unassigned) [Example 86, 3-cyclobutyl-7-{[5-(trifluoromethyl)pyridin-3-yl]sulfonyl}-1,2,3,3a,4,9b-hexahydrochromeno[3,4-b]pyrrole] was more than 1000 nM.

Turning to `O=S(=O)(c1cncc(C(F)(F)F)c1)c1ccc2c(c1)OCC1C2CCN1C1CCC1` (single isomer, unassigned) [Example 87, 3-cyclobutyl-7-{[5-(trifluoromethyl)pyridin-3-yl]sulfonyl}-1,2,3,3a,4,9b-hexahydrochromeno[3,4-b]pyrrole], the Ki is more than 1000 nM. As to `O=S(=O)(c1ccccc1)c1ccc2c(c1)C1CCN(C3CCC3)C1CO2` (single isomer, unassigned) [Example 88, 3-cyclobutyl-8-(phenylsulfonyl)-1,2,3,3a,4,9b-hexahydrochromeno[3,4-b]pyrrole], the Ki is less than 500 nM. For the compound `O=S(=O)(c1ccccc1)c1ccc2c(c1)C1CCN(C3CCC3)C1CO2` (single isomer, unassigned) [Example 89, 3-cyclobutyl-8-(phenylsulfonyl)-1,2,3,3a,4,9b-hexahydrochromeno[3,4-b]pyrrole], the Ki is less than 500 nM.

Consider `O=S(=O)(c1ccccc1)c1ccc2c(c1)OCC1C2CCN1CCO` (single isomer, unassigned) [Example 90, 2-[7-(Phenylsulfonyl)-1,3a,4,9b-tetrahydrochromeno[3,4-b]pyrrol-3(2H)-yl]ethanol], for which the Ki was less than 500 nM. Same read-out and setting: the same measure for `CC(C)CN1CCC2c3ccc(S(=O)(=O)c4ccccc4)cc3OCC21` (single isomer, unassigned) [Example 91, 3-(2-methylpropyl)-7-(phenylsulfonyl)-1,2,3,3a,4,9b-hexahydrochromeno[3,4-b]pyrrole]: less than 500 nM. Still for that read-out and setting: the same measure for `COCCN1CCC2c3ccc(S(=O)(=O)c4ccccc4)cc3OCC21` (single isomer, unassigned) [Example 92, 3-(2-methoxyethyl)-7-(phenylsulfonyl)-1,2,3,3a,4,9b-hexahydrochromeno[3,4-b]pyrrole]: less than 500 nM; for `O=S(=O)(c1ccccc1)c1ccc2c(c1)OCC1C2CCN1CCCO` (single isomer, unassigned) [Example 93, 3[7-(phenylsulfonyl)-1,3a,4,9b-tetrahydrochromeno[3,4-b]pyrrol-3(2H)-yl]propan-1-ol]: less than 500 nM; for `CC(C)CCCN1CCC2c3ccc(S(=O)(=O)c4ccccc4)cc3OCC21` (single isomer, unassigned) [Example 94, 3-(4-methylpentyl)-7-(phenylsulfonyl)-1,2,3,3a,4,9b-hexahydrochromeno[3,4-b]pyrrole]: less than 500 nM.

On to `O=S(=O)(c1ccccc1)c1ccc2c(c1)OCC1C2CCN1Cc1ccccc1` (single isomer, unassigned) [Example 95, 3-benzyl-7-(phenylsulfonyl)-1,2,3,3a,4,9b-hexahydrochromeno[3,4-b]pyrrole], for which the Ki is less than 500 nM.

Turning to `O=S(=O)(c1ccccc1)c1ccc2c(c1)OCC1C2CCN1CCc1ccccc1` (single isomer, unassigned) [Example 96, 3-(2-phenylethyl)-7-(phenylsulfonyl)-1,2,3,3a,4,9b-hexahydrochromeno[3,4-b]pyrrole], the Ki is less than 500 nM. The same measure, in the same setting: the same measure for `O=S(=O)(c1ccccc1)c1ccc2c(c1)OCC1C2CCN1CCO` (single isomer, unassigned) [Example 97, 2-[7-(phenylsulfonyl)-1,3a,4,9b-tetrahydrochromeno[3,4-b]pyrrol-3(2H)-yl]ethanol]: less than 500 nM.

`CC(C)CN1CCC2c3ccc(S(=O)(=O)c4ccccc4)cc3OCC21` (single isomer, unassigned) [Example 98, 3-(2-methylpropyl)-7-(phenylsulfonyl)-1,2,3,3a,4,9b-hexahydrochromeno[3,4-b]pyrrole]: the Ki is more than 1000 nM. On the same count and under the same terms, the value for `COCCN1CCC2c3ccc(S(=O)(=O)c4ccccc4)cc3OCC21` (single isomer, unassigned) [Example 99, 3-(2-methoxyethyl)-7-(phenylsulfonyl)-1,2,3,3a,4,9b-hexahydrochromeno[3,4-b]pyrrole] was more than 1000 nM; that for `O=S(=O)(c1ccccc1)c1ccc2c(c1)OCC1C2CCN1CCCO` (single isomer, unassigned) [Example 100, 3-[7-(phenylsulfonyl)-1,3a,4,9b-tetrahydrochromeno[3,4-b]pyrrol-3(2H)-yl]propan-1-ol] was less than 500 nM. Same read-out and setting: the same measure for `CC(C)CCCN1CCC2c3ccc(S(=O)(=O)c4ccccc4)cc3OCC21` (single isomer, unassigned) [Example 101, 3-(4-methylpentyl)-7-(phenylsulfonyl)-1,2,3,3a,4,9b-hexahydrochromeno[3,4-b]pyrrole]: more than 1000 nM; for `O=S(=O)(c1ccccc1)c1ccc2c(c1)OCC1C2CCN1Cc1ccccc1` (single isomer, unassigned) [Example 102, 3-benzyl-7-(phenylsulfonyl)-1,2,3,3a,4,9b-hexahydrochromeno[3,4-b]pyrrole]: more than 1000 nM; for `O=S(=O)(c1ccccc1)c1ccc2c(c1)OCC1C2CCN1CCc1ccccc1` (single isomer, unassigned) [Example 103, 3-(2-phenylethyl)-7-(phenylsulfonyl)-1,2,3,3a,4,9b-hexahydrochromeno[3,4-b]pyrrole]: more than 1000 nM. Same read-out and setting: the value for `CC(C)Oc1cc(F)cc(S(=O)(=O)c2ccc3c(c2)OCC2NCCC32)c1` (single isomer, unassigned) [Example 108, 7-{[3-fluoro-5-(propan-2-yloxy)phenyl]sulfonyl}-1,2,3,3a,4,9b-hexahydrochromeno[3,4-b]pyrrole] was less than 500 nM.

A further experiment relates to rats.
Experiment: not given
The settings on record: compared to an untreated control group; cited from earlier work.
As to `CN1CCN(c2cccc3c(S(=O)(=O)c4ccccc4)c[nH]c23)CC1` [RO 4368554], the “non-REM (NREM) sleep” value is “increase”.

Another experiment deals with rats.
Experiment: not given
The following applies: rat model of tonic, persistent pain; cited from earlier work.
For the compound `COc1ccc(NS(=O)(=O)c2sc3ccc(Cl)cc3c2C)cc1N1CCNCC1` [SB-271046], the antinociceptive effect result is listed as “short-lived, antinociceptive effect”.
